Where two headings read alike, the source gives them in different places.
Legend:
[1] = target: panel of 255 wild-type kinases (Homo sapiens, UniProt Q92918); assay: Kinase panel profiling at 1 µmol/L (MSA or IMAP), percentage inhibition; assay type: biochemical; conditions: kinase HPK1; 1 µmol/L single concentration; read-out: %-inhibition at 1 µmol/L, HPK1
[2] = target: panel of 255 wild-type kinases (Homo sapiens, UniProt O14578); conditions: cited from earlier work
[3] = target: panel of 255 wild-type kinases (Homo sapiens, UniProt P49840); conditions: cited from earlier work
[4] = target: panel of 255 wild-type kinases (Homo sapiens, UniProt Q00526); conditions: cited from earlier work
[5] = target: T1, panel of 255 wild-type kinases (Homo sapiens, UniProt Q16566); conditions: cited from earlier work
T1 sequence (Q16566 1-473): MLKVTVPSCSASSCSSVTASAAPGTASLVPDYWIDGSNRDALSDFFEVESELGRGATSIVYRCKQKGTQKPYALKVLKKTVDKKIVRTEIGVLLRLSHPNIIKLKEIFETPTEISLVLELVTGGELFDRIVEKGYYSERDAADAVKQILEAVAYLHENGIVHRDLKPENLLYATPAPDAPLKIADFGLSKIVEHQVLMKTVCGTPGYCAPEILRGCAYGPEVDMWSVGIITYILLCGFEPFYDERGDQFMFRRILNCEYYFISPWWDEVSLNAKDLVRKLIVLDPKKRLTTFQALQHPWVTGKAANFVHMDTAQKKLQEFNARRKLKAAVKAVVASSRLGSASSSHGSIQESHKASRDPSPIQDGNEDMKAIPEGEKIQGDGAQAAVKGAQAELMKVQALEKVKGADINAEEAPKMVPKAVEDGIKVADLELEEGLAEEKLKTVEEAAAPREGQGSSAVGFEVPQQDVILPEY

[6] = target: T2, panel of 255 wild-type kinases (Homo sapiens, UniProt Q8NE63); conditions: cited from earlier work
T2 sequence (Q8NE63 1-616): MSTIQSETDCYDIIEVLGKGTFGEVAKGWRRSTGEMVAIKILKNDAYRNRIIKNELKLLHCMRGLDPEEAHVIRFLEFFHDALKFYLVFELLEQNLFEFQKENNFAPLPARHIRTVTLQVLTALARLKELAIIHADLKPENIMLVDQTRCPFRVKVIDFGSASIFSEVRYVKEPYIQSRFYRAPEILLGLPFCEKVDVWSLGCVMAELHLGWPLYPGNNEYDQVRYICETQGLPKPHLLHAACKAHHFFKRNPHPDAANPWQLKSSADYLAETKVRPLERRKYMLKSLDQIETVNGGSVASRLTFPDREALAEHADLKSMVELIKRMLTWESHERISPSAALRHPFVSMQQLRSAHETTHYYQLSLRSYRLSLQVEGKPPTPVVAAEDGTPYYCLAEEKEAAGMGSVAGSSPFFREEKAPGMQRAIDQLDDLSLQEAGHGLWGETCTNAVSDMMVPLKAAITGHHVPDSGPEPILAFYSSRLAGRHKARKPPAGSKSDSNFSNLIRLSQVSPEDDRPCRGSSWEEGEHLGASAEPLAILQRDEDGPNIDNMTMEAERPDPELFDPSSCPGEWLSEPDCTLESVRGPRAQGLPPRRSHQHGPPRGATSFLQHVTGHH

[7] = target: panel of 255 wild-type kinases (Homo sapiens, UniProt Q9H0K1); conditions: cited from earlier work
[8] = target: T3, panel of 255 wild-type kinases (Homo sapiens, UniProt Q9NZJ5); conditions: cited from earlier work
T3 sequence (Q9NZJ5 30-1116): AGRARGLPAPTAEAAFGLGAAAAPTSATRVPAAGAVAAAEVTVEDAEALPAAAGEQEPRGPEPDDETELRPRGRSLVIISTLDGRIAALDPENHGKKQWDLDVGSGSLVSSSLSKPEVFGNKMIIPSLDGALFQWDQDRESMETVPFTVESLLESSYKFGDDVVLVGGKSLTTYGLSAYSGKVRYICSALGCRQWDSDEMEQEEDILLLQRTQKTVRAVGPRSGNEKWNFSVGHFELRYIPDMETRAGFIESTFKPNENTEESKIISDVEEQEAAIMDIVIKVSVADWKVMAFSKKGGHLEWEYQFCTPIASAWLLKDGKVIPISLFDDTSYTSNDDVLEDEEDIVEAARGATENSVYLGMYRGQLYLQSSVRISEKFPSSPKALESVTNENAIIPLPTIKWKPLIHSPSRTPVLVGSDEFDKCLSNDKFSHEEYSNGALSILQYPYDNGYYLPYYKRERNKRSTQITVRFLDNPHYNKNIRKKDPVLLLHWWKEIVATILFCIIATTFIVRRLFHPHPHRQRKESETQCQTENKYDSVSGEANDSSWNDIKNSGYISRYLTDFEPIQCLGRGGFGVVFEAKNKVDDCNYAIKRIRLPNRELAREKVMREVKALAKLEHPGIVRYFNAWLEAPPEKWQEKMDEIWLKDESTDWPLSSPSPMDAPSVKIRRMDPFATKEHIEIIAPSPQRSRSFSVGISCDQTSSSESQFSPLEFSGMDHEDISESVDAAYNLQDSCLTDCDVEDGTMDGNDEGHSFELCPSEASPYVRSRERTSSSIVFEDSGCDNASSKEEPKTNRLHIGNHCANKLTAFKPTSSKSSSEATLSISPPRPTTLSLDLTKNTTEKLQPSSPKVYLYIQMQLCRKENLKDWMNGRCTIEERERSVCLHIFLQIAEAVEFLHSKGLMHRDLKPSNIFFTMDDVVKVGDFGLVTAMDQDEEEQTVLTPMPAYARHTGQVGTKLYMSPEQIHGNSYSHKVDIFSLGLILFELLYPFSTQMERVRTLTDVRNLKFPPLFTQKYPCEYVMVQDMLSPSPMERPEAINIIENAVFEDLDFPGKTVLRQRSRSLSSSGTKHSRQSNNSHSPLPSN

[9] = kinase CRIK, 1 µmol/L single concentration, ref DOI: 10.1158/1535-7163.MCT-18-0877
[10] = kinase GSK3α, 1 µmol/L single concentration, ref DOI: 10.1158/1535-7163.MCT-18-0877
[11] = CDK3/CycE1 kinase assay, 1 µmol/L single concentration, ref DOI: 10.1158/1535-7163.MCT-18-0877
[12] = CaMK4 kinase assay, 1 µmol/L single concentration, ref DOI: 10.1158/1535-7163.MCT-18-0877
[13] = kinase HIPK4, 1 µmol/L single concentration, ref DOI: 10.1158/1535-7163.MCT-18-0877
[14] = kinase QIK, 1 µmol/L single concentration, ref DOI: 10.1158/1535-7163.MCT-18-0877
[15] = kinase PEK, 1 µmol/L single concentration, ref DOI: 10.1158/1535-7163.MCT-18-0877
[16] = kinase CRIK, 1 µmol/L single concentration, ref DOI: 10.1371/journal.pone.0092146
[17] = CaMK4 kinase assay, 1 µmol/L single concentration, ref DOI: 10.1371/journal.pone.0092146
[18] = kinase HIPK4, 1 µmol/L single concentration, ref DOI: 10.1371/journal.pone.0092146
[19] = kinase QIK, 1 µmol/L single concentration, ref DOI: 10.1371/journal.pone.0092146
[20] = kinase GSK3α, 1 µmol/L single concentration, ref DOI: 10.1371/journal.pone.0092146
[21] = CDK3/CycE1 kinase assay, 1 µmol/L single concentration, ref DOI: 10.1371/journal.pone.0092146
[22] = kinase PEK, 1 µmol/L single concentration, ref DOI: 10.1371/journal.pone.0092146

Row | SMILES | %-inhibition at 1 µmol/L, CRIK [2, 9] [%] | %-inhibition at 1 µmol/L, GSK3α [3, 10] [%] | %-inhibition CDK3/CycE1 [4, 11] [%] | %-inhibition CaMK4 [5, 12] [%] | %-inhibition at 1 µmol/L, HIPK4 [6, 13] [%] | %-inhibition at 1 µmol/L, QIK [7, 14] [%] | %-inhibition at 1 µmol/L, PEK [8, 15] [%] | further results
1 | CO[C@]1(C(=O)N[C@@H](C)c2ccc(-n3cc(F)cn3)nc2)CC[C@H](c2nc(C)cc(Nc3cc(C)[nH]n3)n2)CC1 [pralsetinib] |  |  |  |  |  |  |  | inhibition at 1 µM [1]: 50%
2 | O=C(c1ccc(F)c(F)c1Nc1ccc(I)cc1F)N1CC(O)([C@@H]2CCCCN2)C1 [cobimetinib] | 0.417 | 3.42 | 2.16 | 2 | 1.8 | 2.37 | 5 | 
3 | C=CC(=O)N1CCC([C@@H]2CCNc3c(C(N)=O)c(-c4ccc(Oc5ccccc5)cc4)nn32)CC1 [zanubrutinib] |  |  |  |  |  |  |  | inhibition at 1 µM [1]: 1.75%
4 | CC(C)(C)c1nc(-c2cccc(NS(=O)(=O)c3c(F)cccc3F)c2F)c(-c2ccnc(N)n2)s1 [dabrafenib] |  |  |  |  |  |  |  | %-inhibition at 1 µmol/L, CRIK [2, 16]: -2.74%; %-inhibition CaMK4 [5, 17]: 78%; %-inhibition at 1 µmol/L, HIPK4 [6, 18]: 92%; %-inhibition at 1 µmol/L, QIK [7, 19]: 80%
5 | O=C(Nc1cnn2ccc(N3CCC[C@@H]3c3cc(F)ccc3F)nc12)N1CC[C@H](O)C1 [larotrectinib] |  |  |  |  |  |  |  | inhibition at 1 µM [1]: 1%
6 | Cc1cc(Nc2ncc(Cl)c(Nc3ccccc3S(=O)(=O)C(C)C)n2)c(OC(C)C)cc1C1CCNCC1 [ceritinib] | -0.933 | 15 | -3.17 | 30 | 36 | 7.41 | 9.5 | 
7 | Cc1cc(Nc2ncnc3ccc(NC4=NC(C)(C)CO4)cc23)ccc1Oc1ccn2ncnc2c1 [tucatinib] |  |  |  |  |  |  |  | inhibition at 1 µM [1]: 4%
8 | CCc1cc2c(cc1N1CCC(N3CCOCC3)CC1)C(C)(C)c1[nH]c3cc(C#N)ccc3c1C2=O [alectinib] | 2.31 | 4.36 | -2.74 | -4 | 26 | 3 | 9 | 
9 | CCCS(=O)(=O)Nc1ccc(F)c(C(=O)c2c[nH]c3ncc(-c4ccc(Cl)cc4)cc23)c1F [vemurafenib] |  |  |  |  |  |  |  | %-inhibition at 1 µmol/L, CRIK [2, 16]: -6%; %-inhibition at 1 µmol/L, GSK3α [3, 20]: 25%; %-inhibition CDK3/CycE1 [4, 21]: -4.34%; %-inhibition CaMK4 [5, 17]: -2.38%; %-inhibition at 1 µmol/L, HIPK4 [6, 18]: -0.437%; %-inhibition at 1 µmol/L, QIK [7, 19]: 6%; %-inhibition at 1 µmol/L, PEK [8, 22]: 11%
10 | COc1cc(N2CCC(N3CCN(C)CC3)CC2)ccc1Nc1ncc(Cl)c(Nc2ccccc2P(C)(C)=O)n1 [brigatinib] |  |  |  |  |  |  |  | %-inhibition at 1 µmol/L, CRIK [2]: 3.33%; %-inhibition at 1 µmol/L, GSK3α [3]: 4%; %-inhibition CDK3/CycE1 [4]: 0.848%; %-inhibition CaMK4 [5]: 13%; %-inhibition at 1 µmol/L, HIPK4 [6]: 81%; %-inhibition at 1 µmol/L, QIK [7]: 100%; %-inhibition at 1 µmol/L, PEK [8]: 18%
11 | CC(=O)Nc1cccc(-n2c(=O)n(C3CC3)c(=O)c3c(Nc4ccc(I)cc4F)n(C)c(=O)c(C)c32)c1 [trametinib] |  |  |  |  |  |  |  | %-inhibition at 1 µmol/L, CRIK [2, 16]: -4.25%; %-inhibition at 1 µmol/L, GSK3α [3, 20]: 1.59%; %-inhibition CDK3/CycE1 [4, 21]: 0.16%; %-inhibition CaMK4 [5, 17]: -5.45%; %-inhibition at 1 µmol/L, HIPK4 [6, 18]: 2.78%; %-inhibition at 1 µmol/L, QIK [7, 19]: -4.66%; %-inhibition at 1 µmol/L, PEK [8, 22]: 1.13%
12 | CC#CC(=O)N1CCC[C@H]1c1nc(-c2ccc(C(=O)Nc3ccccn3)cc2)c2c(N)nccn12 [acalabrutinib] | -5 | 2.47 | -6 | -8.42 | -10 | -0.215 | 8 | 
13 | C=CC(=O)Nc1cc(Nc2nccc(-c3cn(C)c4ccccc34)n2)c(OC)cc1N(C)CCN(C)C [osimertinib] | 7 | 15 | 22 | 2.5 | 92 | 33 | 7 | 
14 | CO[C@@H]1[C@H](N(C)C(=O)c2ccccc2)C[C@H]2O[C@]1(C)n1c3ccccc3c3c4c(c5c6ccccc6n2c5c31)C(=O)NC4 [midostaurin] | 1.32 |  | 11 | 3.79 | 63 |  | 11 | %-inhibition at 1 µmol/L, GSK3α [3]: 87%
15 | C=CC(=O)N1CCC[C@@H](n2nc(-c3ccc(Oc4ccccc4)cc3)c3c(N)ncnc32)C1 [ibrutinib] | -0.165 | 2.24 | 0.486 | 3 | 2.6 | 4.7 | 7.47 | 
16 | C[C@@H](Oc1cc(-c2cnn(C3CCNCC3)c2)cnc1N)c1c(Cl)ccc(F)c1Cl [crizotinib] |  |  |  |  |  |  |  | %-inhibition at 1 µmol/L, CRIK [2, 16]: -12%; %-inhibition at 1 µmol/L, GSK3α [3, 20]: -2.56%; %-inhibition CDK3/CycE1 [4, 21]: -5.68%; %-inhibition at 1 µmol/L, HIPK4 [6, 18]: 31%; %-inhibition at 1 µmol/L, QIK [7, 19]: 38%; %-inhibition at 1 µmol/L, PEK [8, 22]: 1.1%
